# Laboratory results from patent US20060069132A1, “Azolecarboxamide herbicides” (priority 2004, published 2006).
# Legend:
# [1] = tested on: barnyardgrass; experiment: Test B pre-/postemergence herbicide test; type: in vivo, Echinochloa crus-galli
# In short: (§1)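 Response was scored visually 13 to 15 days after treatment against untreated greenhouse controls, 0 meaning no effect and 100 complete control. Formulations (solvent mixture plus surfactant) went onto soil after planting, onto foliage of 1- to 4-leaf plants, and onto 2-leaf plants in a flooded paddy set including rice and barnyardgrass.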
# [2] = tested on: cocklebur; experiment: Test B pre-/postemergence herbicide test; type: in vivo, Xanthium strumarium
# In short: as §1
# [3] = tested on: corn; experiment: Test B pre-/postemergence herbicide test; type: in vivo, Zea mays
# In short: (§2)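 Formulation: non-phytotoxic solvent mix with surfactant. Timing: preemergence on seed and postemergence on 2–18 cm plants, applied concurrently. Readout after 13–15 d greenhouse: visual 0–100 control rating against controls.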
# [4] = tested on: large crabgrass; experiment: Test B pre-/postemergence herbicide test; type: in vivo, Digitaria sanguinalis
# In short: as §2
# [5] = tested on: giant foxtail; experiment: Test B pre-/postemergence herbicide test; type: in vivo, Setaria faberi
# In short: as §2
# [6] = tested on: lambsquarters; experiment: Test B pre-/postemergence herbicide test; type: in vivo, Chenopodium album; settings: for Lambsquarters plant response rating: postemergence, visual rating
# In short: as §2
# [7] = tested on: morningglory; experiment: Test B pre-/postemergence herbicide test; type: in vivo, Ipomoea coccinea; settings: for Morningglory plant response rating: postemergence, visual rating
# In short: as §1
# [8] = tested on: pigweed; experiment: Test B pre-/postemergence herbicide test; type: in vivo, Amaranthus retroflexus; settings: for Pigweed plant response rating: postemergence, visual rating
# In short: as §2
# [9] = tested on: velvetleaf; experiment: Test B pre-/postemergence herbicide test; type: in vivo, Abutilon theophrasti; settings: for Velvetleaf plant response rating: postemergence, visual rating
# In short: as §2
# [10] = tested on: blackgrass; experiment: Test B postemergence herbicide test; type: in vivo, Alopecurus myosuroides; settings: scale 0 (no effect) to 100 (complete control); for Plant response rating, Blackgrass: Postemergence, 500 g ai/ha, visual rating after 13 to 15 days; for Blackgrass plant response rating: postemergence, 125 g ai/ha, visual rating
# In short: (§3)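 Visual control ratings, 0–100 versus untreated controls, taken after 13 to 15 days in the greenhouse. Blackgrass received a postemergence spray at the 1- to 4-leaf stage (2–18 cm); ducksalad, umbrella sedge and barnyardgrass were flooded-paddy treated at 2 leaves.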
# [11] = tested on: wild oat; experiment: Test B postemergence herbicide test; type: in vivo, Avena fatua; settings: scale 0 (no effect) to 100 (complete control); for Plant response rating, Oat, Wild: Postemergence, 500 g ai/ha, visual rating after 13 to 15 days; for Oat, Wild plant response rating: postemergence, 125 g ai/ha, visual rating
# In short: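 Formulated test chemicals went onto postemergence plants measuring 2 to 18 cm, at one to four leaves. For the paddy assay, species had reached two leaves. Scoring took place 13–15 days later by eye, relative to untreated plants, using 0 for no effect up to 100 for full control.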
# [12] = tested on: rice; experiment: Test B flooded paddy test; type: in vivo, Oryza sativa; settings: 1000 g ai/ha, visual rating, scale 0 to 100 (0 no effect, 100 complete control), 13 to 15 days
# In short: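 Scale 0–100: zero equals no visible effect, 100 complete control, judged by eye relative to controls. Timing: 13 to 15 days in greenhouse post-treatment. Growth stage at spraying: two leaves (paddy) or one to four leaves, 2–18 cm (postemergence).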
# [13] = tested on: small flower umbrella sedge; experiment: Test B flooded paddy test; type: in vivo, Cyperus difformis; settings: 1000 g ai/ha, visual rating, scale 0 to 100 (0 no effect, 100 complete control), 13 to 15 days
# In short: as §3
# [14] = tested on: ducksalad; experiment: Test B flooded paddy test; type: in vivo, Heteranthera limosa; settings: 1000 g ai/ha, visual rating, scale 0 to 100 (0 no effect, 100 complete control), 13 to 15 days
# In short: as §3
# [15] = tested on: barnyardgrass; experiment: Test B flooded paddy test; type: in vivo, Echinochloa crus-galli; settings: 1000 g ai/ha, visual rating, scale 0 to 100 (0 no effect, 100 complete control), 13 to 15 days
# In short: as §3
# [16] = Postemergence, 500 g ai/ha, visual rating after 13 to 15 days, scale 0 (no effect) to 100 (complete control)
# [17] = Preemergence, 500 g ai/ha, scale 0 to 100
# [18] = postemergence, 125 g ai/ha, visual rating, scale 0 (no effect) to 100 (complete control)
# [19] = preemergence, 125 g ai/ha, 0 to 100 scale, 0 is no effect, 100 is complete control
# [20] = 125 g ai/ha, scale 0 (no effect) to 100 (complete control)
Compound,"Plant response rating, Barnyardgrass [1, 16]","Barnyardgrass plant response rating [1, 17]","Barnyardgrass plant response rating [1, 18]","Plant response rating, Barnyardgrass [1, 19]","Plant response rating, Cocklebur [2, 16]","Cocklebur plant response rating [2, 18]","Plant response rating, Cocklebur [2, 19]","Plant response rating, Corn [3, 19]","Plant response rating, Crabgrass, Large [4, 16]","Crabgrass, Large plant response rating [4, 17]","Crabgrass, Large plant response rating [4, 18]","Plant response rating, Crabgrass, Large [4, 19]","Plant response rating, Foxtail, Giant [5, 16]","Foxtail, Giant plant response rating [5, 17]","Foxtail, Giant plant response rating [5, 18]","Plant response rating, Foxtail, Giant [5, 19]","Plant response rating, Lambsquarters [6, 16]","Lambsquarters plant response rating [6, 20]","Plant response rating, Lambsquarters [6, 19]","Plant response rating, Morningglory [7, 19]",also measured
CCn1nc(C(C)(C)C)cc1C(=O)Nc1ccc(F)c(C(=O)NCCF)c1 [Compound 60],10,100,10,50,70,40,0,0,20,100,10,90,20,100,10,40,90,80,90,10,"Cocklebur plant response rating [2, 17]: 0; Plant response rating, Corn [3, 16]: 20; Corn plant response rating [3, 17]: 0; Corn plant response rating [3, 18]: 10; Plant response rating, Morningglory [7, 16]: 20; Morningglory plant response rating [7, 20]: 10; Plant response rating, Pigweed [8, 16]: 70; Pigweed plant response rating [8, 20]: 70; Plant response rating, Pigweed [8, 19]: 90; Plant response rating, Velvetleaf [9, 16]: 60; Velvetleaf plant response rating [9, 20]: 20; Plant response rating, Velvetleaf [9, 19]: 10; Plant response rating, Blackgrass [10]: 0; Blackgrass plant response rating [10]: 0; Plant response rating, Oat, Wild [11]: 20; Oat, Wild plant response rating [11]: 20; Rice plant response rating [12]: 50; Sedge, Umbrella plant response rating [13]: 60; Ducksalad plant response rating [14]: 70; Barnyardgrass plant response rating [15]: 60"
CCn1nc(C(C)(C)C)cc1C(=O)Nc1cccc(C(=O)NOC)c1 [Compound 67],10,80,10,0,70,0,0,0,10,20,10,0,10,10,10,0,60,40,0,0,"Cocklebur plant response rating [2, 17]: 0; Plant response rating, Corn [3, 16]: 10; Corn plant response rating [3, 18]: 10; Plant response rating, Morningglory [7, 16]: 10; Morningglory plant response rating [7, 20]: 0; Plant response rating, Pigweed [8, 16]: 20; Pigweed plant response rating [8, 20]: 0; Plant response rating, Pigweed [8, 19]: 0; Plant response rating, Velvetleaf [9, 16]: 10; Velvetleaf plant response rating [9, 20]: 10; Plant response rating, Velvetleaf [9, 19]: 0; Plant response rating, Blackgrass [10]: 10; Blackgrass plant response rating [10]: 10; Plant response rating, Oat, Wild [11]: 30; Oat, Wild plant response rating [11]: 10; Rice plant response rating [12]: 60; Sedge, Umbrella plant response rating [13]: 80; Ducksalad plant response rating [14]: 80; Barnyardgrass plant response rating [15]: 60"
CCOC(=O)c1cccc(NC(=O)c2cc(C(C)(C)C)nn2CCF)c1 [Compound 79],40,10,30,0,80,80,0,0,30,0,20,0,40,10,30,10,80,70,0,0,"Cocklebur plant response rating [2, 17]: 0; Corn plant response rating [3, 17]: 0; Plant response rating, Pigweed [8, 16]: 100; Pigweed plant response rating [8, 20]: 70; Plant response rating, Pigweed [8, 19]: 0; Plant response rating, Velvetleaf [9, 16]: 80; Velvetleaf plant response rating [9, 20]: 70; Plant response rating, Velvetleaf [9, 19]: 10; Plant response rating, Blackgrass [10]: 30; Blackgrass plant response rating [10]: 20; Plant response rating, Oat, Wild [11]: 30; Oat, Wild plant response rating [11]: 20; Rice plant response rating [12]: 70; Sedge, Umbrella plant response rating [13]: 90; Ducksalad plant response rating [14]: 80; Barnyardgrass plant response rating [15]: 60"
CCn1nc(C(C)(C)C)cc1C(=O)Nc1cccc(C(=O)OC)c1 [Compound 81],90,60,70,10,90,70,0,0,20,10,10,0,50,60,20,10,50,0,0,10,"Cocklebur plant response rating [2, 17]: 0; Plant response rating, Corn [3, 16]: 30; Corn plant response rating [3, 17]: 0; Corn plant response rating [3, 18]: 10; Plant response rating, Morningglory [7, 16]: 30; Morningglory plant response rating [7, 20]: 0; Plant response rating, Pigweed [8, 16]: 90; Pigweed plant response rating [8, 20]: 50; Plant response rating, Pigweed [8, 19]: 20; Plant response rating, Velvetleaf [9, 16]: 90; Velvetleaf plant response rating [9, 20]: 80; Plant response rating, Velvetleaf [9, 19]: 0; Plant response rating, Blackgrass [10]: 20; Blackgrass plant response rating [10]: 0; Plant response rating, Oat, Wild [11]: 30; Oat, Wild plant response rating [11]: 20; Rice plant response rating [12]: 60; Sedge, Umbrella plant response rating [13]: 80; Ducksalad plant response rating [14]: 80; Barnyardgrass plant response rating [15]: 50"
C#CCOC(=O)c1cccc(NC(=O)c2cc(C(C)(C)C)nn2CC)c1 [Compound 84],40,0,20,0,100,20,0,0,50,0,20,0,10,0,10,0,60,0,0,0,"Plant response rating, Corn [3, 16]: 20; Corn plant response rating [3, 17]: 0; Corn plant response rating [3, 18]: 10; Plant response rating, Morningglory [7, 16]: 60; Morningglory plant response rating [7, 20]: 30; Plant response rating, Pigweed [8, 16]: 100; Pigweed plant response rating [8, 20]: 80; Plant response rating, Pigweed [8, 19]: 0; Plant response rating, Velvetleaf [9, 16]: 100; Velvetleaf plant response rating [9, 20]: 60; Plant response rating, Velvetleaf [9, 19]: 0; Plant response rating, Blackgrass [10]: 10; Blackgrass plant response rating [10]: 0; Plant response rating, Oat, Wild [11]: 20; Oat, Wild plant response rating [11]: 20; Rice plant response rating [12]: 0; Sedge, Umbrella plant response rating [13]: 70; Ducksalad plant response rating [14]: 20; Barnyardgrass plant response rating [15]: 10"
